Data reported in publication PMC8004712, “MRAP2 Interaction with Melanocortin-4 Receptor in SnakeHead (Channa argus)” (Biomolecules, 2021).

Legend:
goldfish = details: intracerebroventricular, ref [25]; cited from earlier work
Excerpt: MC4R has been investigated in several non-mammalian vertebrates including ectotherm fish, such as goldfish, rainbow trout, spotted scat, grass carp, ricefield eel, orange-spotted grouper, and topmouth culter. Similar to mammalian MC4Rs, teleost MC4R is also involved in regulating food intake and maintaining energy balance. […] Meanwhile, intracerebroventricular administration of M ...

MC4R = details: ref [36],[59],[65]; cited from earlier work
Excerpt: (decreased cell surface expression), or zebrafish and topmouth culter (increased cell surface expression). Therefore, MRAP2 has a differential effect on MC4R membrane expression in different species. […] In topmouth culter, two isoforms of MRAP2 are also sho ...

[1] = test system: brain gnih, sgnrh and cgnrh; ovarian genes; details: black rockfish, ref not given, cited from earlier work
Excerpt: In addition to energy homeostasis, MC4R also regulates reproduction and sexual function. Compared with mammals, the evidence of MC4R in regulating teleost reproduction is relatively scarce. In swordtail fish, nonfunctional Y-linked mc4r copies in larger males act as dominant-negative mutants and delay puberty onset. In spotted scat, MC4R stimulates gnrh expression in the hypothalamus, thereby modulating pituitary FSH and LH synthesis.

caMC4R [2] = experiment: cAMP assay, caMC4R; format: cell-based, Channa argus (Northern snakehead); details: HEK293T cells
caMC4R [3] = experiment: Ligand binding assay, caMC4R (displacement of ^125I-NDP-MSH); design: species or system Channa argus (Northern snakehead); details: HEK293T cells, 48 h after transfection, competition with ^125I-NDP-MSH, 1-h incubation, DMEM/BSA, gamma counter, mean ± SEM of at least three independent experiments

In the case of melanotan II, the “food intake” value (goldfish) is listed as “inhibits food intake”.
For HS024, the “food intake” value (goldfish) is given as “stimulates food intake”.
In the case of ACTH, the “ligand sensitivity of MC4R to ACTH in the presence of MRAP2” value (MC4R) is given as “increasing ligand sensitivity to ACTH”.
For `CSCC[C@H](NC(=O)[C@H](CCCNC(=N)N)NC(=O)[C@H](Cc1ccc(O)cc1)NC(=O)[C@@H]1CCCN1C(=O)CNC(=O)[C@H](CCC(=O)O)NC(=O)[C@H](CC(=O)O)NC(=O)[C@H](CCCCN)NC(=O)[C@H](CCCCN)NC(=O)[C@H](CCC(=O)O)NC(=O)[C@H](C)N)C(=O)N[C@@H](CCC(=O)O)C(=O)N[C@@H](Cc1c[nH]cn1)C(=O)N[C@@H](Cc1ccccc1)C(=O)N[C@@H](CCCNC(=N)N)C(=O)N[C@@H](Cc1c[nH]c2ccccc12)C(=O)NCC(=O)N[C@@H](CO)C(=O)N1CCC[C@H]1C(=O)N1CCC[C@H]1C(=O)N[C@@H](CCCCN)C(=O)N[C@@H](CC(=O)O)C(=O)O` [β-MSH], the “expression of brain gnih, sgnrh and cgnrh” value ([1]; in vitro) is given as “increase brain gnih and decrease sgnrh and cgnrh expression in vitro”, the “expression of ovarian genes” value [1] is given as “affect expression of some ovarian genes” and the “maximal response at caMC4R in comparison with hMC4R” value (caMC4R [2]; caMC4R vs hMC4R, cAMP) is given as “higher maximal responses than hMC4R”. The Rmax (caMC4R [2]; caMC4R, % of hMC4R, cAMP by RIA, 1 h at 37 °C, maximal response, mean ± SEM of at least three independent experiments) was 163.9 ± 89.36%, the EC50 (caMC4R [2]; caMC4R, cAMP by RIA, 0.5 mM isobutylmethylxanthine, 1 h at 37 °C, 10^−12 to 10^−6 M NDP-MSH and ACTH (1–24), 10^−11 to 10^−5 M α-MSH and β-MSH, mean ± SEM of at least three independent experiments) was 2.49 ± 0.81 nM and the IC50 (caMC4R [3]) was 329 ± 120 nM.
